Reference: patent publication EP0284725A2, “Indoxyl-beta-d-glucuronide and method for making” (QUEEN'S UNIVERSITY AT KINGSTON, priority 1987, dated 1988)
Structures can show the parent of a compound that is named as a salt.

Experiments:
Escherichia coli = test: Enzyme reaction of bacteria on m-TECB based agar media in microtiter plates, read visually by colour; type: cell-based
Excerpt: (§1) Enzyme activity was detected on the m-TEC medium of Dufour et al. (Dufour, A.P., E.R. Strickland and V.J. Cabelli. 1981. Membrane filter method for enumerating Eseherichia coli. Appl. Envion. Microbiol. 41: 1152-1158) prepared with the following modifications: bromocresol purple, bromophenol red and lactose were omitted; the modified m-TEC medium contained (g/1 proteose peptone No. 3, 5.0g; yeast extract 3.0g; glycerol 10.0g; NaCl 7.5g; K2HPO4 3.3g; KH2PO4 1.0g; sodium lauryl sulfate 0.2g; sodium deoxycholate 0.10g and agar 15.0g. The medium was autoclaved for 15 minutes at 121°C. The following chemicals, purchased from the Sigma Chemical Company, St.Louis. Mo., were added separately to the modified m-TEC medium after autoclaving and cooling to 50°C - 60°C: para-nitrophenyl-β- ? -glucuronide 400 mg/l; indoxyl-β- ? -glucoside 250 mg/l. Indoxyl-β- ? -glucuronide, prepared as described in Example 8, was added at 350-400 mg/l. The four agar media used in this study will be referred to as follows: modified m-TEC as m-TECB medium; the formulations of indoxyl-β-D -glucuronide as IGA, para-nitrophenyl-β-D-glucuronide as PNGA, and indoxyl-β-D -glucoside (indican) as IA media.
(§2) In this experiment, four organisms were tested for β- D -glucuronidase and β- D -glucosidase activity: American Type Culture Collection (ATCC) strains Escherichia Coli 35218 and Klebsiella pneumonia 13883; environmental isolates that have been characterized in our laboratory, Escherichia coli 83-17350 and Klebsiella pneumonia PHL.
(§3) A series of m-TECB agar basal media microtiter plates were prepared, using the m-TECB base media described in Example 9, and indoxyl-β- D -glucuronide, p-nitrophenyl-β- D -glucuronide or indoxyl-β-D-glucoside was added to respective plates. Specific bacteria from controlled sources, described above, were applied to the plates and incubated at 45°C for 16 2 hours.

Klebsiella pneumonia = test: as above; type: cell-based; conditions: K. pneumonia
Excerpt: as §1, §2, §3

colour / reactivity (Klebsiella pneumonia) | SMILES | colour / reactivity (Escherichia coli; Environmental and ATCC strains of E.coli) | hydrolysis by the glucuronidase activity of E. coli (Escherichia coli)
blue colour | OC[C@H]1O[C@@H](Oc2c[nH]c3ccccc23)[C@H](O)[C@@H](O)[C@@H]1O [indican, indoxyl-β-D -glucoside] | no reactivity | –
– | O=C(O)[C@H]1O[C@@H](Oc2c[nH]c3ccccc23)[C@H](O)[C@@H](O)[C@@H]1O [indoxyl-β- D -glucuronide, Indoxyl-β-D -Glucuronide Sodium Salt] | – | readily and specifically hydrolysed
